Reference: the NIST ThermoML archive (doi:10.1021/je060336+)
± gives the expanded uncertainty stated by the source.

Conditions: Liquid

CC(F)(F)F [1,1,1-trifluoroethane]
vapor or sublimation pressure (313.15 K): 1831 ± 14 kPa | vapor or sublimation pressure (323.15 K): 2302 ± 18 kPa | vapor or sublimation pressure (333.15 K): 2874 ± 22 kPa | vapor or sublimation pressure (343.15 K): 3553 ± 28 kPa

CCCC [butane]
vapor or sublimation pressure (313.15 K): 377 ± 3 kPa | vapor or sublimation pressure (323.15 K): 495 ± 4 kPa | vapor or sublimation pressure (333.15 K): 639 ± 5 kPa | vapor or sublimation pressure (343.15 K): 810 ± 6 kPa | vapor or sublimation pressure (353.15 K): 1012 ± 8 kPa | vapor or sublimation pressure (363.15 K): 1250 ± 10 kPa
